Laboratory results: patent US20090124588A1, “Androstane 17-Alpha-Carbonate for Use in the Treatment of Inflammatory and Allergic Conditions” (Glaxo Group Limited, priority 2005, published 2009)

Columns and labels:
Assay type in all cases: cell-based
Progesterone Receptor = target: T1, Progesterone Receptor (Homo sapiens, UniProt P06401); test: Progesterone receptor activity (CV-1 cells transduced with PRb-BacMam and MMTV-BacMam); conditions: 24 h, Steady Glo, read-out: pEC50 progesterone receptor (converted)
T1 construct: expressed in transfected cells; host or cells: CV-1 cells transduced with BacMam virus
T1 sequence (P06401 1-933): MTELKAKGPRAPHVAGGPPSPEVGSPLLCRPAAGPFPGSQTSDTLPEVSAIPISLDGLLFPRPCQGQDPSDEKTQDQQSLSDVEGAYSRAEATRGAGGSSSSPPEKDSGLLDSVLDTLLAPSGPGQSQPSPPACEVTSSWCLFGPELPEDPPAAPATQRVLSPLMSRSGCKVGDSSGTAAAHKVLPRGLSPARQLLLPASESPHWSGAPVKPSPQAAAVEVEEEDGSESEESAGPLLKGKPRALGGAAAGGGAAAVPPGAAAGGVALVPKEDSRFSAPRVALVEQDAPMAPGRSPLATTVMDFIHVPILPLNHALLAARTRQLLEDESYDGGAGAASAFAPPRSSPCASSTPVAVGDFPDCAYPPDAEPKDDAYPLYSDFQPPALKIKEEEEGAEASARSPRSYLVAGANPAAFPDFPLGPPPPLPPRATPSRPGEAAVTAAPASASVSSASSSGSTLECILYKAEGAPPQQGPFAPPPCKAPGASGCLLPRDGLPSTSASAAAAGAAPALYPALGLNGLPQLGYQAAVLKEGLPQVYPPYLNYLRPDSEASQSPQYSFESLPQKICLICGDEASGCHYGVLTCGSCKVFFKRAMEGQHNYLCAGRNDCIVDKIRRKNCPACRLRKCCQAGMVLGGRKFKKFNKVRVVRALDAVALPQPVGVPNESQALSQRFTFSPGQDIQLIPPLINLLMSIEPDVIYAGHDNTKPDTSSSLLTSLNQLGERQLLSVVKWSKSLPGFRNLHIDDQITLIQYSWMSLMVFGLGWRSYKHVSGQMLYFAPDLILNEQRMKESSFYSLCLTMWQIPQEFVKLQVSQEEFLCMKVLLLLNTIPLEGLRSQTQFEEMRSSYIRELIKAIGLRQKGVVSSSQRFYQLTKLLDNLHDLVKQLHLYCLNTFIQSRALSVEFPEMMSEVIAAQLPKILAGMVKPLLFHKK
Method: A T225 flask of CV-1 cells at a density of 80% confluency was washed with PBS, detached from the flask using 0.25% trypsin and counted using a Sysmex KX-21N. Cells were diluted in DMEM containing 10% Hyclone, 2 mM […] and 1% Pen/Strep at 140 cells/μl and transduced with 10% PRb-BacMam and 10% MMTV-BacMam. […] of suspension cells were dispensed to each well of white Nunc 384-well plates, containing compounds at the required concentration. After 24 h 10 μl of Steady Glo were added to each well of the plates. Plates were incubated in the dark for 10 min before reading them on a Viewlux reader. Dose response curves were constructed from which pEC50 values were estimated.

glucocorticoid receptor [1] = target: T2, glucocorticoid receptor (Homo sapiens, UniProt P04150); test: Transactivation activity of glucocorticoid agonists (MMTV-LTR renilla luciferase reporter in A549 cells); conditions: 6 hour at 37° C., read-out: maximal response relative to Dexamethasone (100%)
T2 sequence (P04150 1-777): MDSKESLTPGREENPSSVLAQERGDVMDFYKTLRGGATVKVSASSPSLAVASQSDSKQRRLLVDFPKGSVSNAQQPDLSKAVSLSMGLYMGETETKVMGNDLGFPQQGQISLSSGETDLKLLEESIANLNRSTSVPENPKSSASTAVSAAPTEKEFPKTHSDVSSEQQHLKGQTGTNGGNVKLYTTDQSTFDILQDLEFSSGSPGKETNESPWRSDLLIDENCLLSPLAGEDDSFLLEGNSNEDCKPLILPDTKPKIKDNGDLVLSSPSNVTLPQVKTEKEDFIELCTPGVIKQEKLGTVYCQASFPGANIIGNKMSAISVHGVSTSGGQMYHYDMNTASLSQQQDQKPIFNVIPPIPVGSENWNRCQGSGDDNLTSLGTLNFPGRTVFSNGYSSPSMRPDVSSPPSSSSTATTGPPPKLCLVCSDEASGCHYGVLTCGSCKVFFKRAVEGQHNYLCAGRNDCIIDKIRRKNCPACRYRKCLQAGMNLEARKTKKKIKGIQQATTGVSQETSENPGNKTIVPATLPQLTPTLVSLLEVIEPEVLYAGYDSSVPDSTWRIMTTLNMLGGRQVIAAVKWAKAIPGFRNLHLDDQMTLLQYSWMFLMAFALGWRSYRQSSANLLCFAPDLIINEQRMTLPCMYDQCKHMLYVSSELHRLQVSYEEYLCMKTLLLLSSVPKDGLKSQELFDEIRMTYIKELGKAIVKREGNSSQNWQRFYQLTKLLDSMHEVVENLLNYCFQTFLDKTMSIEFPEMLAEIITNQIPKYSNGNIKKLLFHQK
Method: The functional assay based on that described by R. J. H. Austin et al., Eur Resp J. (2002), 20, 1386-1392 measures the ability of compounds to directly transactivate gene expression. A549 cells stably transfected with a reporter gene containing the glucocorticoid responsive region of the mouse mammary tumour virus long terminal repeat (MMTV-LTR) coupled to renilla luciferase were treated with test compounds at appropriate doses for 6 hour at 37° C. The amount of luciferase activity present within the cells is then determined by measuring the light emitted following incubation with a suitable substrate. Dose response curves were constructed from which EC50 values were estimated and from which maximal responses are calculated relative to Dexamethasone (100%).

glucocorticoid receptor [2] = target: T2, glucocorticoid receptor; test: Transrepression activity of glucocorticoid agonists (NF-κB/ELAM-sPAP reporter in A549 cells, TNF stimulated); conditions: NF-κB responsive ELAM promoter-sPAP reporter, compound 1 hour, TNF 10 ng/ml 16 hours, read-out: pEC50 transrepression (converted)
Method: The functional assay based on that described by K. P. Ray et al., Biochem J. (1997), 328, 707-715 provides a measure of transrepressive activity of a glucocorticoid agonist. A549 cells stably transfected with a reporter gene containing the NF-κB responsive elements from the ELAM gene promoter coupled to sPAP (secreted alkaline phosphatase) are treated with test compounds at appropriate doses for 1 hour at 37° C. The cells are then stimulated with tumour necrosis factor (TNF, 10 ng/ml) for 16 hours, at which time the amount of alkaline phosphatase produced is measured by a standard colourimetric assay. Dose response curves were constructed from which EC50 values were estimated.

Compound | EC50 (Progesterone Receptor) [nM] | Emax (glucocorticoid receptor [1]) [%] | EC50 (glucocorticoid receptor [2]) [nM]
C[C@@H]1C[C@H]2[C@@H]3C[C@H](F)C4=CC(=O)C=C[C@]4(C)[C@@]3(F)[C@@H](O)C[C@]2(C)[C@@]1(OC(=O)OC(C)(C)C)C(=O)OCC#N [Example 1, Cyanomethyl (6α,11β,16α,17α)-17-({[(1,1-dimethylethyl)oxy]carbonyl}oxy)-6,9-difluoro-11-hydroxy-16-methyl-3-oxoandrosta-1,4-diene-17-carboxylate] | > 100 | < 10 | < 0.1
CCC(C)(C)OC(=O)O[C@]1(C(=O)OCC#N)[C@H](C)C[C@H]2[C@@H]3C[C@H](F)C4=CC(=O)C=C[C@]4(C)[C@@]3(F)[C@@H](O)C[C@@]21C [Example 2, Cyanomethyl (6α,11β,16α,17α)-17-({[(1,1-dimethylpropyl)oxy]carbonyl}oxy)-6,9-difluoro-1-hydroxy-16-methyl-3-oxoandrosta-1,4-diene-17-carboxylate] | > 100 | < 10 | < 0.1
